Test results from the OligoGym collection.
Values joined by “and” are separate entries in the source; they are usually repeats but may differ in a detail not shown here. Equal entries are not always repeated. After the bases stand the sugars from the 5' end (letter, count) and the backbone: PS all phosphorothioate, else s phosphorothioate and o phosphodiester by linkage. Methylation of C is not given here. e = 2'-O-(2-methoxyethyl) (MOE); l = locked nucleic acid (LNA); k = constrained ethyl (cEt); d = 2'-deoxy (DNA)

Assays:
ANGPTL2 = conditions: ASO
KRAS = conditions: ASO

Row | Sequence | target mRNA inhibition (ANGPTL2; 5 µM) | target mRNA inhibition (ANGPTL2; 25 µM) | target mRNA inhibition (KRAS; A431, 2 µM) | other results
1 | AAGCATCATTGAAAATTC (sugars l4 d10 l4, PS) | 75.9% | 85.1% |  | 
2 | AAGCTGTTGAAATGTATG (sugars l3 d11 l4, PS) | 41.3% | 30.4% |  | 
3 | AATTTACAGTTCTTTGTC (sugars l4 d10 l4, PS) | 78.2% | 83.3% |  | 
4 | ACATGTATATTATGAAGGTA (sugars l4 d14 l2, PS) | 18.1% | 8.64% |  | 
5 | ACCATTTTGAGATTCCC (sugars l2 d13 l2, PS) | 30% | 24.7% |  | 
6 | ACCATTTTGAGATTCCCC (sugars l1 d15 l2, PS) | -8.3% | 18.9% |  | 
7 | ACTAAATGAACTTCCACA (sugars l4 d11 l3, PS) | 44.6% | 64.9% |  | 
8 | ACTTCTATTCTTGGACC (sugars l2 d13 l2, PS) | 47.8% | 55.7% |  | 
9 | ATGATGCGGTTGTAGG (sugars l2 d11 l3, PS) | 69.8% | 81.1% |  | 
10 | ATTTTGAGATTCCCCCAAAG (sugars l1 d17 l2, PS) | 10.8% | 2.99% |  | 
11 | CAAGAGGGAGGGGAGGACA (sugars l1 d16 l2, PS) | 36.8% | 42.9% |  | 
12 | CAGGCCAACACTAACTCGG (sugars l1 d16 l2, PS) | 49% | 57% |  | 
13 | CATCTAAGGAATGTGGT (sugars l4 d11 l2, PS) | 63.7% | 71.9% |  | 
14 | CCAACCATAAATTAATTG (sugars l4 d10 l4, PS) | 61.8% | 74.5% |  | 
15 | CCACACCCAACATTTTA (sugars l2 d13 l2, PS) | 56.8% | 63% |  | 
16 | CCAGTTCCTGAAGAAGTTA (sugars l1 d15 l3, PS) | 27.8% | 30.1% |  | 
17 | CCATTTTGAGATTCCCC (sugars l1 d14 l2, PS) | 26.4% | 11.8% |  | 
18 | CCTGGTAAAATCTTACA (sugars l3 d11 l3, PS) | 37.4% | 48.2% |  | 
19 | CTAGATTTCTTTCAGTTTG (sugars l2 d14 l3, PS) | 62.7% and 67.4% | 67.5% and 77.3% |  | 
20 | CTAGGCACTCAATCCCA (sugars l1 d14 l2, PS) | 21.9% | 31.5% |  | 
21 | CTGGTTGATGATGCGGTTG (sugars l1 d16 l2, PS) | 52.7% | 60.5% |  | 

Row | Sequence | target mRNA inhibition (ANGPTL2; 5 µM) | target mRNA inhibition (ANGPTL2; 25 µM) | target mRNA inhibition (KRAS; A431, 2 µM) | other results
22 | GAAATGTTATCTAATACT (sugars l4 d10 l4, PS) | 34.5% | 49% |  | 
23 | GAACTCAGCCCAGTAGAC (sugars l1 d15 l2, PS) | -4.7% | 17.5% |  | 
24 | GAATTTTCTTTACCTTAG (sugars l4 d11 l3, PS) | 41.4% | 56% |  | 
25 | GAGTTTGGATCATAGAA (sugars l4 d10 l3, PS) | 41.2% | 65.8% |  | 
26 | GATGATGCGGTTGTAGG (sugars l2 d13 l2, PS) | 67% | 78% |  | 
27 | GATTGTGCTGAGCTTG (sugars kkddddddddddkeke, PS) |  |  | 19% | 
28 | GATTGTGCTGAGCTTG (sugars kkkddddddddkekek, PS) |  |  | 37% | 
29 | GATTTGTCAGCAGGAC (sugars k3 d10 k3, PS) |  |  | 47% | target mRNA inhibition (KRAS; A431, 0.037 µM): 68%; target mRNA inhibition (KRAS; A431, 5 µM): 96% and 93%; target mRNA inhibition (KRAS; NCI-H460, 0.037 µM): 60.1%
30 | GATTTGTCAGCAGGAC (sugars kddddddddddkekek, PS) |  |  | 57% | target mRNA inhibition (KRAS; A431, 0.185 µM): 16%; target mRNA inhibition (KRAS; A431, 0.556 µM): 46%; target mRNA inhibition (KRAS; A431, 1.667 µM): 62%; target mRNA inhibition (KRAS; A431, 5 µM): 78%
31 | GATTTGTCAGCAGGAC (sugars kdddddddddkekeke, PS) |  |  | 32% | 
32 | GCAAGATGACACTAAT (sugars k3 d10 k3, PS) |  |  | 30% | 
33 | GCAATGTTAATTTAAC (sugars k3 d10 k3, PS) |  |  | 17% | 
34 | GCAGTGTGACTCAGTT (sugars k3 d10 k3, PS) |  |  | 48% | 
35 | GCTAAAACAAATGCTA (sugars k3 d10 k3, PS) |  |  | 33% | 
36 | GCTAATAATTTAGTGT (sugars k3 d10 k3, PS) |  |  | 18% | 
37 | GGAGTCTTTATAGTAA (sugars kkkddddddddkekek, PS) |  |  | 0% | 
38 | GGCATTGCTAGTTCAA (sugars k3 d10 k3, PS) |  |  | 43% | 
39 | GGTGAATATCTTCAAA (sugars k3 d10 k3, PS) |  |  | 28% | 
40 | GGTGTAACATAGGTTA (sugars kddddddddddkekek, PS) |  |  | 64% | target mRNA inhibition (KRAS; A431, 0.185 µM): 15%; target mRNA inhibition (KRAS; A431, 0.556 µM): 39%; target mRNA inhibition (KRAS; A431, 1.667 µM): 62%; target mRNA inhibition (KRAS; A431, 5 µM): 80%
41 | GGTGTAACATAGGTTA (sugars kdddddddddkekeke, PS) |  |  | 57% | target mRNA inhibition (KRAS; A431, 0.185 µM): 1%; target mRNA inhibition (KRAS; A431, 0.556 µM): 35%; target mRNA inhibition (KRAS; A431, 1.667 µM): 56%; target mRNA inhibition (KRAS; A431, 5 µM): 71%; target mRNA inhibition (KRAS; NCI-H460, 0.037 µM): 52.2%
42 | GTCCAGTGATACTTTC (sugars k3 d10 k3, PS) |  |  | 44% | 

Row | Sequence | target mRNA inhibition (ANGPTL2; 5 µM) | target mRNA inhibition (ANGPTL2; 25 µM) | target mRNA inhibition (KRAS; A431, 2 µM) | other results
43 | GTCCAGTGATACTTTC (sugars kdddddddddkekeke, PS) |  |  | 20% | 
44 | GTCCAGTGATACTTTC (sugars kkkdddddddddkeke, PS) |  |  | 33% | 
45 | GTCCAGTGATACTTTC (sugars kkkddddddddkdkdk, PS) |  |  | 30% | 
46 | GTCTATTCATACCAGG (sugars k3 d10 k3, PS) |  |  | 60% | 
47 | GTGTAACATAGGTTAA (sugars k3 d10 k3, PS) |  |  | 30% | 
48 | GTGTTTATGCAATGTT (sugars kkdddddddddkekek, PS) |  |  | 65% | target mRNA inhibition (KRAS; A431, 0.185 µM): 22%; target mRNA inhibition (KRAS; A431, 0.556 µM): 54%; target mRNA inhibition (KRAS; A431, 1.667 µM): 77%; target mRNA inhibition (KRAS; A431, 5 µM): 83%
49 | TAAAACAAATGCTAAT (sugars k3 d10 k3, PS) |  |  | 5% | 
50 | TAATTACTTATGCAGA (sugars k3 d10 k3, PS) |  |  | 17% | 
51 | TACTTATGCAGAGAAA (sugars k3 d10 k3, PS) |  |  | 0% | 
52 | TAGTTTCACATAGCAA (sugars k3 d10 k3, PS) |  |  | 51% | 
53 | TAGTTTCCATTGCCTT (sugars k3 d10 k3, PS) |  |  | 16% | 
54 | TATCTTGTTGAGCTAT (sugars k3 d10 k3, PS) |  |  | 33% | 
55 | TATGCAATGTTAATTT (sugars k3 d10 k3, PS) |  |  | 8% | 
56 | TCCAGTGATACTTTCA (sugars kkdddddddddkekek, PS) |  |  | 37% | 
57 | TCCAGTGATACTTTCA (sugars kkddddddddkekekk, PS) |  |  | 24% | 
58 | TCCATTTATGTGACTA (sugars kkkdddddddddkeke, PS) |  |  | 8% | 
59 | TCTATTCATACCAGGT (sugars k3 d10 k3, PS) |  |  | 26% | 
60 | TCTGTCTATTCATACC (sugars k3 d10 k3, PS) |  |  | 12% | 
61 | TCTTATGGTTAGGGGA (sugars k3 d10 k3, PS) |  |  | 8% | 
62 | TCTTGATTTGTCAGCA (sugars kkddddddddddkeke, PS) |  |  | 91% and 92% | target mRNA inhibition (KRAS; A431, 0.037 µM): 84%; target mRNA inhibition (KRAS; A431, 0.125 µM): 65% and 61%; target mRNA inhibition (KRAS; NCI-H460, 0.037 µM): 67.6%
63 | TGAATTAGTCTCCATT (sugars k3 d10 k3, PS) |  |  | 17% | 

Row | Sequence | target mRNA inhibition (ANGPTL2; 5 µM) | target mRNA inhibition (ANGPTL2; 25 µM) | target mRNA inhibition (KRAS; A431, 2 µM) | other results
64 | TGATTTGTCAGCAGGA (sugars kdddddddddkekeke, PS) |  |  | 32% | 
65 | TGATTTGTCAGCAGGA (sugars kkdddddddddkdkdk, PS) |  |  | 15% | 
66 | TGCAGTGTGACTCAGT (sugars k3 d10 k3, PS) |  |  | 55% | 
67 | TGCTAATAATTTAGTG (sugars k3 d10 k3, PS) |  |  | 6% | 
68 | TGCTGTGAAACTCTCT (sugars k3 d10 k3, PS) |  |  | 27% | 
69 | TGCTGTGAAACTCTCT (sugars kkdddddddddkdkdk, PS) |  |  | 26% | 
70 | TGGTGTAACATAGGTT (sugars kkdddddddddkekek, PS) |  |  | 62% | target mRNA inhibition (KRAS; A431, 0.185 µM): 21%; target mRNA inhibition (KRAS; A431, 0.556 µM): 45%; target mRNA inhibition (KRAS; A431, 1.667 µM): 66%; target mRNA inhibition (KRAS; A431, 5 µM): 83%
71 | TGGTGTAACATAGGTT (sugars kkkddddddddkekek, PS) |  |  | 67% | target mRNA inhibition (KRAS; A431, 0.185 µM): 31%; target mRNA inhibition (KRAS; A431, 0.556 µM): 53%; target mRNA inhibition (KRAS; A431, 1.667 µM): 79%; target mRNA inhibition (KRAS; A431, 5 µM): 82%
72 | TGTATCTTGTTGAGCT (sugars k3 d10 k3, PS) |  |  | 31% | 
73 | TGTCTATTCATACCAG (sugars k3 d10 k3, PS) |  |  | 16% | 
74 | TGTGAAACTCTCTATG (sugars k3 d10 k3, PS) |  |  | 4% | 
75 | TGTTTATGCAATGTTA (sugars kkddddddddkekekk, PS) |  |  | 56% | target mRNA inhibition (KRAS; A431, 0.185 µM): 22%; target mRNA inhibition (KRAS; A431, 0.556 µM): 47%; target mRNA inhibition (KRAS; A431, 1.667 µM): 68%; target mRNA inhibition (KRAS; A431, 5 µM): 76%
76 | TTAGGGGAATTACAAG (sugars k3 d10 k3, PS) |  |  | 23% | 
77 | TTAGTGATTAGGTCAA (sugars k3 d10 k3, PS) |  |  | 59% and 51% and 52% | target mRNA inhibition (KRAS; A431, 0.185 µM): 32%; target mRNA inhibition (KRAS; A431, 0.556 µM): 56%; target mRNA inhibition (KRAS; A431, 1.667 µM): 68%; target mRNA inhibition (KRAS; A431, 5 µM): 82%
78 | TTAGTGATTAGGTCAA (sugars kddddddddddkekek, PS) |  |  | 12% | 
79 | TTAGTGATTAGGTCAA (sugars kdddddddddkekeke, PS) |  |  | 0% | 
80 | TTAGTGATTAGGTCAA (sugars kkkdddddddddkeke, PS) |  |  | 32% | 
81 | TTCTGATGTGACTCAG (sugars k3 d10 k3, PS) |  |  | 26% | 
82 | TTGATTTGTCAGCAGG (sugars kddddddddddkekek, PS) |  |  | 17% | 
83 | TTGTTGAGCTATCCAA (sugars k3 d10 k3, PS) |  |  | 3% | 
84 | TTTAAAAAAAAAATTA (sugars k3 d10 k3, PS) |  |  | 3% | 
